Results: EP4129284B1, “SERTACONAZOL FOR PROVIDING A SPORISTATIC AND/OR SPORICIDAL EFFECT” (Dr. Pfleger Arzneimittel GmbH, priority 2021, dated 2023)

System: T. rubrum
Assay: Full skin model infected with spores, treatment, histology (PAS-staining)
Type: cell-based, Trichophyton rubrum
Settings: for spread of T. rubrum: up to 72 h after application, ciclopiroxolamin 400 µg/mL, terbinafin 0.050 µg/mL, histology vs infected untreated control; for outgrowth of the spores of T. rubrum: sertaconazol 0.025 µg/mL, Fig. 5
From the text: For an application in vivo, there is the additional requirement for the antimycotic substances to evoke a targeted antimycotic activity in the presence of human cells. Thus, 3D-cell-cultures such as full skin models are used to simulate the in vivo conditions. Such full skin models are for example described in Reddersen K, Wiegand C, Elsner P, Hipler UC. Three-dimensional human skin model infected with Staphylococcus aureus as a tool for evaluation of bioactivity and biocompatibility of antiseptics. Int J Antimicrob Agents. 2019; 54(3):283-291; Wiegand C, Fink S, Beier O, Horn K, Pfuch A, Schimanski A, Grünler B, Hipler UC, Elsner P. Dose- and Time-Dependent Cellular Effects of Cold Atmospheric Pressure Plasma Evaluated in 3D Skin Models. Skin Pharmacol Physiol. 2016;29(5):257-265. Particularly, such full skin models are made of a collagen matrix, which is colonized with primary human fibroblasts, and a fully differentiated epidermis made of primary human keratinocytes. For the experiments, the model is infected in vitro with spores, such that a determination of the sporistatic or sporicidal influence of the substances to be examined at in vivo relevant conditions is allowed. Compared to a 2D-model, the 3D full skin model has the advantage that the cells are in their natural three-dimensional surrounding and show a corresponding behaviour. Such, the antimycotic and sporistatic or sporicidal effects can be examined in situ and in the presence of human cells.
The spore suspensions and the solutions of sertaconazol, ciclopiroxolamin and terbinafin were prepared as in Example 1, wherein the respective test concentrations were obtained by diluting these solutions in ultrapure water (WFI; Fresenius Kabi) instead of SGB (Merck). Full skin models were produced as previously described [Reddersen K, Wiegand C, Elsner P, Hipler UC. Three-dimensional human skin model infected with Staphylococcus aureus as a tool for evaluation of bioactivity and biocompatibility of antiseptics. Int J Antimicrob Agents. 2019; 54(3):283-291; Wiegand C, Fink S, Beier O, Horn K, Pfuch A, Schimanski A, Grünler B, Hipler UC, Elsner P. Dose- and Time-Dependent Cellular Effects of Cold Atmospheric Pressure Plasma Evaluated in 3D Skin Models. Skin Pharmacol Physiol. 2016;29(5):257-265].Particularly, normal human dermal fibroblasts (NHDF; Lot 1060702.1, Promocell) and normal human epidermal keratinocytes (NHEK; Lot 9100102, Promocell) were used. Fibroblasts were cultivated in Dulbecco's modified eagle medium (DMEM; Lot MC09049P, Amimed), with 2% foetal calf serum (Lot P160509; PAN), 5 ng/mL hFGF (Lot 0329586; novoprotein) and 5 µg/ml Insulin (Lot H07443P, AMIMED) at 37°C and a 5% CO2 atmosphere. […]

Structure (SMILES)	spread of T. rubrum	outgrowth of the spores of T. rubrum (48 h treatment)	outgrowth of the spores of T. rubrum (72 h treatment)
Cc1cc(C2CCCCC2)n(O)c(=O)c1 [Ciclopiroxolamin, ciclopiroxolamin]	reduce the spread of T. rubrum but could not inhibit it		
Clc1ccc(C(Cn2ccnc2)OCc2csc3c(Cl)cccc23)c(Cl)c1 (stereo not shown) [Sertaconazol, sertaconazol]		inhibit the outgrowth	reduce the outgrowth
CN(C/C=C/C#CC(C)(C)C)Cc1cccc2ccccc12 [Terbinafin, terbinafin]	did not have any effect		
